The record followed here is ChEMBL document CHEMBL5653631, “A Potent and Selective ULK1 Inhibitor Suppresses Autophagy and Sensitizes Cancer Cells to Nutrient Stress” (iScience, 2018).

Experiment [1] deals with Serine/threonine-protein kinase WNK3 (Homo sapiens) (UniProt Q9BYP7). Briefly: Inhibition of human recombinant Wnk3 at 40 nM related to control ULK1.
The target of experiment [2] is T1, Protein kinase C zeta type (Homo sapiens) (UniProt Q05513).
T1 sequence (whole entry): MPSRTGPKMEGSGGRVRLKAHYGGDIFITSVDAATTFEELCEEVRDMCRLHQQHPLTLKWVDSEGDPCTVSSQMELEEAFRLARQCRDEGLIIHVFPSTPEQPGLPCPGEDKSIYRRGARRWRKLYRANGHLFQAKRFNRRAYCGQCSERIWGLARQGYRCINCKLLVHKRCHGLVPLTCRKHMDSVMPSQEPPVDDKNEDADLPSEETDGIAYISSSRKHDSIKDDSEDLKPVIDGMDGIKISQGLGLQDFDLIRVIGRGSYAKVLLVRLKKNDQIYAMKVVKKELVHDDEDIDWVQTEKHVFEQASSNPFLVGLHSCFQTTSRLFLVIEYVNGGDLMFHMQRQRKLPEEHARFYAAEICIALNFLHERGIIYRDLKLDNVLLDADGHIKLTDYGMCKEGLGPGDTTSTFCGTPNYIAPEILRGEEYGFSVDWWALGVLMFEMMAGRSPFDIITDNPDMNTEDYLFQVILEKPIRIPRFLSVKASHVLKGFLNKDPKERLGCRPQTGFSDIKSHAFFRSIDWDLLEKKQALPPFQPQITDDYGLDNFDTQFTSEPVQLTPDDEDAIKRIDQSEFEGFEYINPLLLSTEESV
Briefly: Inhibition of human recombinant PKCz at 500 nM in presence of ATP by radiometric assay relative to control.

Experiment [3] deals with Focal adhesion kinase 1 (Homo sapiens) (UniProt Q05397). Kind of experiment: Inhibition of human recombinant FAK at 500 nM in presence of ATP by radiometric assay relative to control.
Experiment [4] deals with T2, Tyrosine-protein kinase Mer (Homo sapiens) (UniProt Q12866).
T2 sequence (whole entry): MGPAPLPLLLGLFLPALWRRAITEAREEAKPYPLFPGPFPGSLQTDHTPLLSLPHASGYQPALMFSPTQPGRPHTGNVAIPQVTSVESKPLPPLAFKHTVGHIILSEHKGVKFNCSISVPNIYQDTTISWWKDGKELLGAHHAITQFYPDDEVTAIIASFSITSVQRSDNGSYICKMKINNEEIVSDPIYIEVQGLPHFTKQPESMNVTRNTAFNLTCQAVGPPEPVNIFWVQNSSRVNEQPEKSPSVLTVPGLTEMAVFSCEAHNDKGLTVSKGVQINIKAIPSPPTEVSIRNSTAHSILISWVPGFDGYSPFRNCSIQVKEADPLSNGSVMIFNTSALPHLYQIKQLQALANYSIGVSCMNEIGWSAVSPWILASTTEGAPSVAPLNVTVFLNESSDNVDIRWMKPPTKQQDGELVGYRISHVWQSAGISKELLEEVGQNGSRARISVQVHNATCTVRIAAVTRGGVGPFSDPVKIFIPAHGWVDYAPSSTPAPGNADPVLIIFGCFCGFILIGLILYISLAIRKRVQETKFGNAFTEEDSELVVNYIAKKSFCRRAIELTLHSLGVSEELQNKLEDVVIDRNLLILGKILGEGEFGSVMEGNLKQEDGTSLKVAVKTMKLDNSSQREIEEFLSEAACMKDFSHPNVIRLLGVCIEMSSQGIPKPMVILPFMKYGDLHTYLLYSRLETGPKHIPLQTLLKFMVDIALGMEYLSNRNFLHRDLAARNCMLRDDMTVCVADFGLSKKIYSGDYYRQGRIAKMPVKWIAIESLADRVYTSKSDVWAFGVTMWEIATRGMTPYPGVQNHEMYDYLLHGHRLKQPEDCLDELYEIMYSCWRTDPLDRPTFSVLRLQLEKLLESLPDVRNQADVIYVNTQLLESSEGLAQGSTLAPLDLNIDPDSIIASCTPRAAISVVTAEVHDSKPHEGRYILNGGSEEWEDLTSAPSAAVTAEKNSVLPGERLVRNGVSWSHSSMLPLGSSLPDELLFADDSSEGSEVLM
Briefly: Inhibition of human recombinant MER at 500 nM in presence of ATP by radiometric assay relative to control.

For experiment [5], the target named is T3, Ephrin type-B receptor 4 (Homo sapiens) (UniProt P54760).
T3 sequence (whole entry): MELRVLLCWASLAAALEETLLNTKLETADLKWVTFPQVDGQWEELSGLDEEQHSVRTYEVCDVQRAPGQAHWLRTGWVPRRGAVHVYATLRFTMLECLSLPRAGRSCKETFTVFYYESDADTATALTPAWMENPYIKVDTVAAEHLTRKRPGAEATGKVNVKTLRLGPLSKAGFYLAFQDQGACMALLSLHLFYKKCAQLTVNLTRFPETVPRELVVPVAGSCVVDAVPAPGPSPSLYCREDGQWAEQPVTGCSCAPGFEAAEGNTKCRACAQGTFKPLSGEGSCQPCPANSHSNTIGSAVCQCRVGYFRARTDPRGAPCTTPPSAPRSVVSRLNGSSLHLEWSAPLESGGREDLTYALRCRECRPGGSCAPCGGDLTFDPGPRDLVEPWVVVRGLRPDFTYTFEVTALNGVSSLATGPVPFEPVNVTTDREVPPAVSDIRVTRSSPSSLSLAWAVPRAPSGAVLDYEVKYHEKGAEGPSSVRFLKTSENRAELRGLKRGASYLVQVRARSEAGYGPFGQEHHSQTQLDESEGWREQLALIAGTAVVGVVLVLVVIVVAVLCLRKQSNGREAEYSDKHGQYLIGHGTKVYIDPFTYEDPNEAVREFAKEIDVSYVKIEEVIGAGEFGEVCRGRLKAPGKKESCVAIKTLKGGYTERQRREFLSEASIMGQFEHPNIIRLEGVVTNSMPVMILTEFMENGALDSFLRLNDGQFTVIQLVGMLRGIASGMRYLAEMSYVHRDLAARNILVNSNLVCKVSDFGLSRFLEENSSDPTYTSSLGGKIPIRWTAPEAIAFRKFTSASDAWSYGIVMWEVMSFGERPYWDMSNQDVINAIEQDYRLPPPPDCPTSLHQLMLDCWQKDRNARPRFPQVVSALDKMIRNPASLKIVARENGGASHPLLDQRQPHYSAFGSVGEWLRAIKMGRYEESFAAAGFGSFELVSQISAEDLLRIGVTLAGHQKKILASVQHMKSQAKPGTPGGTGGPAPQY
Kind of experiment: Inhibition of human recombinant EphB4 at 500 nM in presence of ATP by radiometric assay relative to control.

Experiment [6] has as its target Mitogen-activated protein kinase kinase kinase 20 (Homo sapiens) (UniProt Q9NYL2). Kind of experiment: Inhibition of human recombinant ZAK at 500 nM in presence of ATP by radiometric assay relative to control.
Experiment [7] concerns the target Serine/threonine-protein kinase WNK3 (Homo sapiens) (UniProt Q9BYP7). Kind of experiment: Inhibition of human recombinant Wnk3 at 15 nM in presence of ATP by radiometric assay relative to control.
Experiment [8] deals with Tau-tubulin kinase 2 (Homo sapiens) (UniProt Q6IQ55). Kind of experiment: Inhibition of human recombinant TTBK2 at 15 nM related to control ULK1.
Tau-tubulin kinase 2 (Homo sapiens), sequence (Q6IQ55 whole entry): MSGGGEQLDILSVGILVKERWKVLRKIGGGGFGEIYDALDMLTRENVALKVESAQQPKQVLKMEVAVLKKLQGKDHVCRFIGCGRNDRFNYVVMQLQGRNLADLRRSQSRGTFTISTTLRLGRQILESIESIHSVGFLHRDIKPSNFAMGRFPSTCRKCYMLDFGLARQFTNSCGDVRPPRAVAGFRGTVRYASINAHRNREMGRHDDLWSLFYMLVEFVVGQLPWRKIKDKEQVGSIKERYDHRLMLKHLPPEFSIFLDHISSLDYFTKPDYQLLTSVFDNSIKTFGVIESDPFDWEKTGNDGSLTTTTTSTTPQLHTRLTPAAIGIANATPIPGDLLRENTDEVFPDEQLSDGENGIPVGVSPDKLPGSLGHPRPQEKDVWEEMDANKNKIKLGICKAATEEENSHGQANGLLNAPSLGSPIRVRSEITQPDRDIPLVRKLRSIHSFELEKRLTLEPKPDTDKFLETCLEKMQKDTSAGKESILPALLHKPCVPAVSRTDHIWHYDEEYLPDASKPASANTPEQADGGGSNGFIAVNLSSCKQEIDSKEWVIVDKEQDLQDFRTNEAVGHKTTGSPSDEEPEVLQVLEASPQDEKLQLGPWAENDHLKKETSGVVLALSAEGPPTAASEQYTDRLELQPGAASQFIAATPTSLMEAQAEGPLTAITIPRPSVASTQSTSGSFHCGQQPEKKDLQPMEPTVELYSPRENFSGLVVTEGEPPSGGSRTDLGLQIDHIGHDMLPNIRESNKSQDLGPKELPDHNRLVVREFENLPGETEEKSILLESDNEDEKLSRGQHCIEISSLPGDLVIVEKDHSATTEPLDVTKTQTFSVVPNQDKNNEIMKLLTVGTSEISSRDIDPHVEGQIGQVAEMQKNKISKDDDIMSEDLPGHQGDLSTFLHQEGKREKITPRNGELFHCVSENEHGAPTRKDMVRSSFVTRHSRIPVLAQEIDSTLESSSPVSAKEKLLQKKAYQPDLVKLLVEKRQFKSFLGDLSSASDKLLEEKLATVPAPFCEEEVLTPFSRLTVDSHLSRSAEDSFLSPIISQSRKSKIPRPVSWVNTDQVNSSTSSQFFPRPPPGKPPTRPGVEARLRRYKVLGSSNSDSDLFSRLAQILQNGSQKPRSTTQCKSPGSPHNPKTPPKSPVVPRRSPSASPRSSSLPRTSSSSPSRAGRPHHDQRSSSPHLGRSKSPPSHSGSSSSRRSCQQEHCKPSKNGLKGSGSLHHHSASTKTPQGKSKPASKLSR

Serine/threonine-protein kinase WNK3 (Homo sapiens), sequence (Q9BYP7 whole entry): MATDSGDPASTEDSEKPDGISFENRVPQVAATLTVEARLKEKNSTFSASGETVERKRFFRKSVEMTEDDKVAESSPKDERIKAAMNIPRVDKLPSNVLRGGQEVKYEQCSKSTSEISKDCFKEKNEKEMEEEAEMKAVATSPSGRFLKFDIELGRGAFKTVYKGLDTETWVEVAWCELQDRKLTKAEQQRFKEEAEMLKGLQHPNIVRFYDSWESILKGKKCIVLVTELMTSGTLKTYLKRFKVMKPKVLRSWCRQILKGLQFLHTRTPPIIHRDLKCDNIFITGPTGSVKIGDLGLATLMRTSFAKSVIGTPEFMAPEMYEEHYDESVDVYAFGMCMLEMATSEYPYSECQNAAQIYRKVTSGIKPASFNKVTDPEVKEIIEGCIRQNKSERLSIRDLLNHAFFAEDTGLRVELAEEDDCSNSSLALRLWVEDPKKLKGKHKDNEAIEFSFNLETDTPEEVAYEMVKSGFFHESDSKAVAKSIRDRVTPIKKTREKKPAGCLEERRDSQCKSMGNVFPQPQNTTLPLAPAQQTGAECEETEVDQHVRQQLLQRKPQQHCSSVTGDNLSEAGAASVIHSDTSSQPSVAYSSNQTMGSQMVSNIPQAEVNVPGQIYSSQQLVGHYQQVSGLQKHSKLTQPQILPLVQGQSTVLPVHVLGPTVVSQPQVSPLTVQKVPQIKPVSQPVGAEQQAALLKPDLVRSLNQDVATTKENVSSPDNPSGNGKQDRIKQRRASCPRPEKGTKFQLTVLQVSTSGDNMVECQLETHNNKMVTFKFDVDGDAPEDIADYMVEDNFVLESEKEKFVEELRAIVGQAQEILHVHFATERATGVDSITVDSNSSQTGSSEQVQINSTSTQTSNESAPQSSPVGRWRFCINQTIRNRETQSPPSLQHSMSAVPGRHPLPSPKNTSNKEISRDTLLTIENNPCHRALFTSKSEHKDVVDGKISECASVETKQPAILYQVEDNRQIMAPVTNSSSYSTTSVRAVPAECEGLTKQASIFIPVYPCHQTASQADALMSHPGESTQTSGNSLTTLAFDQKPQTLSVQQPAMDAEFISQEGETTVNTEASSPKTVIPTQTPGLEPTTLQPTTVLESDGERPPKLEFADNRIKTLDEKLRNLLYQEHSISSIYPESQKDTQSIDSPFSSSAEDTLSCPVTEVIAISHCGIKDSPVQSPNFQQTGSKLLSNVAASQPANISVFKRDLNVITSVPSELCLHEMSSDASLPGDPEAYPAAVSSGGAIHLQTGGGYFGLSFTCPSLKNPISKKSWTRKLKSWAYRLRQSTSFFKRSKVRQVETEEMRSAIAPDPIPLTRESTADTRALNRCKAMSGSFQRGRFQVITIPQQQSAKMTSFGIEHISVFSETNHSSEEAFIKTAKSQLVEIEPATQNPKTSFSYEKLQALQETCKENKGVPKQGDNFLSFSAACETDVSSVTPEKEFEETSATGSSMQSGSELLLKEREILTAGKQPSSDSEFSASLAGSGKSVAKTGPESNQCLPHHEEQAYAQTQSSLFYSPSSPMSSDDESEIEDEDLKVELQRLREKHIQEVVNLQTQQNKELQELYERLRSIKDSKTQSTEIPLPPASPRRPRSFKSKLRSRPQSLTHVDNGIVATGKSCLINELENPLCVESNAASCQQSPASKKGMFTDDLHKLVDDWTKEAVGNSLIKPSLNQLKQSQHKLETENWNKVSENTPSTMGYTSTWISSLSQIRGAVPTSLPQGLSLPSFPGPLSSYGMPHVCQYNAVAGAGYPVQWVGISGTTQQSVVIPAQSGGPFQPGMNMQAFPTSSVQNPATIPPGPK
Mitogen-activated protein kinase kinase kinase 20 (Homo sapiens), sequence (Q9NYL2 2-800 limits assumed): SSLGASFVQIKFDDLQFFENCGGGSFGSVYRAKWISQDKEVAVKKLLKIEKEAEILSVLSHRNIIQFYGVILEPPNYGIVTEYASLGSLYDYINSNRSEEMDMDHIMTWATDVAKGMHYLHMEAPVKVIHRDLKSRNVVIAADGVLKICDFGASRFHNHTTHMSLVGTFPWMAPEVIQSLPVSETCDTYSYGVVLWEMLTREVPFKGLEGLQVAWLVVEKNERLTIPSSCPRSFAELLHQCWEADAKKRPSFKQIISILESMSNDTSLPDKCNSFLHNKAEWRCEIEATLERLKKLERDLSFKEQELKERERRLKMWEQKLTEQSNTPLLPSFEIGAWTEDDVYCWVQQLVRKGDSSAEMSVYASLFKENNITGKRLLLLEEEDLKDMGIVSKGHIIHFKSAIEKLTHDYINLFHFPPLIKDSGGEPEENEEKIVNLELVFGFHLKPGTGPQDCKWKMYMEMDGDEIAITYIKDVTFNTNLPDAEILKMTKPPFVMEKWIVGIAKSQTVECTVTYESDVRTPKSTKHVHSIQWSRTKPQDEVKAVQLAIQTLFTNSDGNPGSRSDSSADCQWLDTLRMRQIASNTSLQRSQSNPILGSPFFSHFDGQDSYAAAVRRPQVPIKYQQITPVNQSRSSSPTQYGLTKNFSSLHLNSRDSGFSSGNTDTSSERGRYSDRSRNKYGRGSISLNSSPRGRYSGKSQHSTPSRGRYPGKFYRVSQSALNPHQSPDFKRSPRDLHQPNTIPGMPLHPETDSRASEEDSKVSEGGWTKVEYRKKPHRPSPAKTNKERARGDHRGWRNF
Focal adhesion kinase 1 (Homo sapiens), sequence (Q05397 2-1052 limits assumed): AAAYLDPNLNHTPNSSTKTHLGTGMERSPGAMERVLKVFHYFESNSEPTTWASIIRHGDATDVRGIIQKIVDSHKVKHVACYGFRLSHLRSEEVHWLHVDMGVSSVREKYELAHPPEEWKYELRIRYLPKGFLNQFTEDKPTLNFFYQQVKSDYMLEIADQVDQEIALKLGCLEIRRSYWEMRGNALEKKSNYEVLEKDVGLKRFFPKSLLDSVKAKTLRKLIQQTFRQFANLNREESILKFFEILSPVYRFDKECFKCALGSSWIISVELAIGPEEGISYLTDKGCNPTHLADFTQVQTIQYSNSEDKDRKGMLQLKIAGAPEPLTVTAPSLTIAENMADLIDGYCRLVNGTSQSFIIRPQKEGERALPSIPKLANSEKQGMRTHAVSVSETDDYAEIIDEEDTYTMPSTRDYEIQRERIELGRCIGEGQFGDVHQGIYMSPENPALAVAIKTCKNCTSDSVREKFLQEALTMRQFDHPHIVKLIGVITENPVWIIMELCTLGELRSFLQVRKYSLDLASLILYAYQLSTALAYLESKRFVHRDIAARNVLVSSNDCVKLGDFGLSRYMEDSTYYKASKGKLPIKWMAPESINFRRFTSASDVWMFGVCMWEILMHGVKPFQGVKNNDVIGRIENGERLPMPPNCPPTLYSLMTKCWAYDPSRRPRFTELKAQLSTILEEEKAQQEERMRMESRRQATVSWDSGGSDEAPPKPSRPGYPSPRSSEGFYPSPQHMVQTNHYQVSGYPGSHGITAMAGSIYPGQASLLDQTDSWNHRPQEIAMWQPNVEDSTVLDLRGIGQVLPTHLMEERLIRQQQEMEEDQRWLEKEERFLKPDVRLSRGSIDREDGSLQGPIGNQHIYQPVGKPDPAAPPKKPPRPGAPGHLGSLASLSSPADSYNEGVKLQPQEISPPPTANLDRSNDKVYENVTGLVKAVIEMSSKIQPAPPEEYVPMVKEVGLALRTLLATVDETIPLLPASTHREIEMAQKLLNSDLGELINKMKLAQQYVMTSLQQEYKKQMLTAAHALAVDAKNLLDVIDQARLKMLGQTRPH

`O=C(N[C@@H](C1CC1)C(F)(F)F)c1cc(-c2cnn3cc(-c4ccc(F)cc4)cnc23)cs1`: in experiment [1], the fold change (FC) came to 0.04.
One may read the inhibition as the relative decrease from the control value, in per cent. With `CNC(=O)c1ccccc1Oc1nc(Nc2cc(OC)c(OC)c(OC)c2)ncc1Br`, the inhibition in experiment [2] worked out at 0%; in experiment [3], 71%; in experiment [4], 9%; in experiment [5], 0%; in experiment [6], 1%.
Regarding `CC(C)[C@H](NC(=O)c1cc(-c2cnn3cc(-c4ccc(OCCN5CCCCC5)cc4)cnc23)cs1)C(F)(F)F`, in experiment [7], the inhibition turned out to be 0%. The fold change (FC) in experiment [8] stood at 0.
